Reference: patent publication US20240123079A1 (Seagen Inc., priority 2021, published 2024)

test system: THP1-Dual™ reporter cells; assay: THP1-Dual cell reporter assay (IRF-Lucia luciferase reporter); assay type: cell-based, human; conditions: ADCs: drug linker conjugated to a targeted mAb, 48 h
Experimental: THP1-Dual™ Cell Reporter Assay
Potency of compounds and ADCs was evaluated using the THP1-Dual™ cells (InvivoGen PN: thpd-nfis [also referred to as THP1 dual reporter cells]), which contain an IRF-Lucia luciferase reporter. Cells were cultured in RPMI-1640 (Gibco) with 10% heat-inactivated fetal bovine serum, Pen-Strep (100 U/mL-100 μg/mL, Gibco), HEPES (10 mM, Gibco)), sodium pyruvate (1 mM, Gibco), MEM non-essential amino acids (1×, Gibco), GlutaMAX (1×, Gibco), and beta-mercaptoethanol (55 μM, Gibco). Cells were plated in a 96-well flat bottom tissue culture-treated clear polystyrene plate (Corning Costar #3596) at ˜100,000 cells per well in 200 μL with the indicated concentration of the compound or ADC. The supernatant was harvested at 24 hours (compounds) or 48 hours (ADC) post plating for the reporter assay, or as indicated. To measure Lucia reporter signal, 10 μL of the supernatant was combined with 40 μL of QUANTI-Luc™ Luminescence assay reagent (Invivogen PN: rep-qlc1) in a 96-well clear flat bottom tissue culture-treated black polystyrene plate (Corning Costar #3603) and read on a Perkin Elmer Envision plate reader.
STING agonist compounds were assessed for their ability to activate THP1-Dual™ reporter cells, a human monocytic cell line in which type I interferon (IRF) signaling can be monitored via a secreted luciferase reporter protein (Lucia). THP1-Dual™ cells were treated with increasing concentrations of the agonists for 24h, then supernatants were harvested and the Lucia reporter signal was quantified using QUANTI-Luc™ Luminescence assay reagent.

Row | Compound | EC50 (ng/mL)
1 | CCn1nc(C)cc1C(=O)Nc1nc2cc(C(=O)OC)cc(OC)c2n1C/C=C/Cn1c(NC(=O)c2cc(C)nn2CC)nc2cc(C(=O)OC)cc(OCCCN(C)C(=O)CCN3C(=O)C=CC3=O)c21 [Compound 66, methyl (E)-7-(3-(3-(2,5-dioxo-2,5-dihydro-1H-pyrrol-1-yl)-N-methylpropanamido)propoxy)-2-(1-ethyl-3-methyl-1H-pyrazole-5-carboxamido)-1-(4-(2-(1-ethyl-3-methyl-1H-pyrazole-5-carboxamido)-7-methoxy-5-(methoxycarbonyl)-1H-benzo[d]imidazol-1-yl)but-2-en-1-yl)-1H-benzo[d]imidazole-5-carboxylate] | >10,000 ng/mL
2 | CCn1nc(C)cc1C(=O)Nc1nc2cc(C(=O)OC)cc(OC)c2n1C/C=C/Cn1c(NC(=O)c2cc(C)nn2CC)nc2cc(C(=O)OC)cc(OCCCN(C)C(=O)OCc3ccc(O[C@@H]4O[C@H](C(=O)O)[C@@H](O)[C@H](O)[C@H]4O)cc3NC(=O)CCNC(=O)CCN3C(=O)C=CC3=O)c21 [Compound 67] | >10,000 ng/mL
3 | CCn1nc(C)cc1C(=O)Nc1nc2cc(C(=O)O)cc(OC)c2n1C/C=C/Cn1c(NC(=O)c2cc(C)nn2CC)nc2cc(C(=O)O)cc(OCCCN(C)C(=O)CCN3C(=O)C=CC3=O)c21 [Compound 68, (E)-1-(4-(5-carboxy-2-(1-ethyl-3-methyl-1H-pyrazole-5-carboxamido)-7-methoxy-1H-benzo[d]imidazol-1-yl)but-2-en-1-yl)-7-(3-(3-(2,5-dioxo-2,5-dihydro-1H-pyrrol-1-yl)-N-methylpropanamido)propoxy)-2-(1-ethyl-3-methyl-1H-pyrazole-5-carboxamido)-1H-benzo[d]imidazole-5-carboxylic acid] | >10,000 ng/mL
4 | CCn1nc(C)cc1C(=O)Nc1nc2cc(C(=O)O)cc(OC)c2n1C/C=C/Cn1c(NC(=O)c2cc(C)nn2CC)nc2cc(C(=O)O)cc(OCCCN(C)C(=O)OCc3ccc(O[C@@H]4O[C@H](C(=O)O)[C@@H](O)[C@H](O)[C@H]4O)cc3NC(=O)CCNC(=O)CCN3C(=O)C=CC3=O)c21 [Compound 69] | >10,000 ng/mL

same assay, conditions: Homo sapiens, THP1-Dual; free compounds, 24 h, Lucia reporter signal; read-out: EC50

Row | EC50 [µM] | Compound
5 | > 10 | COc1cc(C(N)=O)cc2nc(NC(=O)c3nc(C)cs3)n(C/C=C/Cn3c(NC(=O)c4nc(C)cs4)nc4cc(C(N)=O)cc(O)c43)c12 [Compound 38]
6 | > 10 | COc1cc(C(N)=O)cc2nc(NC(=O)c3cc(C)on3)n(C/C=C/Cn3c(NC(=O)c4cc(C)on4)nc4cc(C(N)=O)cc(O)c43)c12 [Compound 39]
7 | > 10 | COc1cc(C(N)=O)cc2nc(NC(=O)c3cc(C)sn3)n(C/C=C/Cn3c(NC(=O)c4cc(C)sn4)nc4cc(C(N)=O)cc(O)c43)c12 [Compound 40]
8 | > 10 | CCn1cccc1C(=O)Nc1nc2cc(C(N)=O)cc(O)c2n1C/C=C/Cn1c(NC(=O)c2cccn2CC)nc2cc(C(N)=O)cc(OC)c21 [Compound 41]
9 | > 10 | COc1cc(C(N)=O)cc2nc(NC(=O)c3cccnn3)n(C/C=C/Cn3c(NC(=O)c4cccnn4)nc4cc(C(N)=O)cc(O)c43)c12 [Compound 42]
10 | > 10 | COc1cc(C(N)=O)cc2nc(NC(=O)c3ccnnc3)n(C/C=C/Cn3c(NC(=O)c4ccnnc4)nc4cc(C(N)=O)cc(O)c43)c12 [Compound 43]
11 | > 10 | COc1cc(C(N)=O)cc2nc(NC(=O)c3ncccn3)n(C/C=C/Cn3c(NC(=O)c4ncccn4)nc4cc(C(N)=O)cc(O)c43)c12 [Compound 44]
12 | > 10 | COc1cc(C(N)=O)cc2nc(NC(=O)c3ccncn3)n(C/C=C/Cn3c(NC(=O)c4ccncn4)nc4cc(C(N)=O)cc(O)c43)c12 [Compound 45]
13 | > 10 | COc1cc(C(N)=O)cc2nc(NC(=O)c3cnccn3)n(C/C=C/Cn3c(NC(=O)c4cnccn4)nc4cc(C(N)=O)cc(O)c43)c12 [Compound 46]
14 | > 10 | COc1cc(C(N)=O)cc2nc(NC(=O)Cn3cccn3)n(C/C=C/Cn3c(NC(=O)Cn4cccn4)nc4cc(C(N)=O)cc(O)c43)c12 [Compound 47]
15 | > 10 | COc1cc(C(N)=O)cc2nc(NC(=O)Cn3nc(C)cc3C)n(C/C=C/Cn3c(NC(=O)Cn4nc(C)cc4C)nc4cc(C(N)=O)cc(O)c43)c12 [Compound 48]
16 | > 10 | COc1cc(C(N)=O)cc2nc(NC(=O)C(C)n3cc(Cl)cn3)n(C/C=C/Cn3c(NC(=O)C(C)n4cc(Cl)cn4)nc4cc(C(N)=O)cc(O)c43)c12 (stereo not drawn) [Compound 49]
17 | > 10 | COc1cc(C(N)=O)cc2nc(NC(=O)c3cc(Cl)nn3C)n(C/C=C/Cn3c(NC(=O)c4cc(Cl)nn4C)nc4cc(C(N)=O)cc(O)c43)c12 [Compound 50]
18 | > 10 | COc1cc(C(=O)Nc2nc3cc(C(N)=O)cc(O)c3n2C/C=C/Cn2c(NC(=O)c3cc(OC)nn3C)nc3cc(C(N)=O)cc(OC)c32)n(C)n1 [Compound 51]
19 | > 10 | CCn1nc(C(F)(F)F)cc1C(=O)Nc1nc2cc(C(N)=O)cc(O)c2n1C/C=C/Cn1c(NC(=O)c2cc(C(F)(F)F)nn2CC)nc2cc(C(N)=O)cc(OC)c21 [Compound 52]
20 | > 10 | CCc1cc(C(=O)Nc2nc3cc(C(N)=O)cc(O)c3n2C/C=C/Cn2c(NC(=O)c3cc(CC)nn3C)nc3cc(C(N)=O)cc(OC)c32)n(C)n1 [Compound 53]

Row | EC50 [µM] | Compound
21 | > 10 | COc1cc(C(N)=O)cc2nc(NC(=O)c3cc(C)nn3C)n(C/C=C/Cn3c(NC(=O)c4cc(C)nn4C)nc4cc(C(N)=O)cc(O)c43)c12 [Compound 54]
22 | > 10 | COc1cc(C(N)=O)cc2nc(NC(=O)c3cc(C)n[nH]3)n(C/C=C/Cn3c(NC(=O)c4cc(C)n[nH]4)nc4cc(C(N)=O)cc(O)c43)c12 [Compound 55]
23 | > 10 | COc1cc(C(N)=O)cc2nc(NC(=O)C3CCCC3)n(C/C=C/Cn3c(NC(=O)C4CCCC4)nc4cc(C(N)=O)cc(O)c43)c12 [Compound 56]
24 | > 10 | COc1cc(C(N)=O)cc2nc(NC(=O)C3CCC3)n(C/C=C/Cn3c(NC(=O)C4CCC4)nc4cc(C(N)=O)cc(O)c43)c12 [Compound 57]
25 | > 10 | COc1cc(C(N)=O)cc2nc(NC(=O)c3cc(C)no3)n(C/C=C/Cn3c(NC(=O)c4cc(C)no4)nc4cc(C(N)=O)cc(O)c43)c12 [Compound 58]
26 | > 10 | COc1cc(C(N)=O)cc2nc(NC(=O)c3ccno3)n(C/C=C/Cn3c(NC(=O)c4ccno4)nc4cc(C(N)=O)cc(O)c43)c12 [Compound 59]
27 | > 10 | COc1cc(C(N)=O)cc2nc(NC(=O)c3cc(C)ns3)n(C/C=C/Cn3c(NC(=O)c4cc(C)ns4)nc4cc(C(N)=O)cc(O)c43)c12 [Compound 60]
28 | > 10 | CCn1nc(C)cc1C(=O)Nc1nc2cc(C(=O)OC)cc(O)c2n1C/C=C/Cn1c(NC(=O)c2cc(C)nn2CC)nc2cc(C(=O)OC)cc(OC)c21 [Compound 62, methyl (E)-2-(1-ethyl-3-methyl-1H-pyrazole-5-carboxamido)-1-(4-(2-(1-ethyl-3-methyl-1H-pyrazole-5-carboxamido)-7-hydroxy-5-(methoxycarbonyl)-1H-benzo[d]imidazol-1-yl)but-2-en-1-yl)-7-methoxy-1H-benzo[d]imidazole-5-carboxylate]
29 | 2.51 | CCn1nc(C)cc1C(=O)Nc1nc2cc(C(=O)O)cc(O)c2n1C/C=C/Cn1c(NC(=O)c2cc(C)nn2CC)nc2cc(C(=O)O)cc(OC)c21 [Compound 63, (E)-1-(4-(5-carboxy-2-(1-ethyl-3-methyl-1H-pyrazole-5-carboxamido)-7-hydroxy-1H-benzo[d]imidazol-1-yl)but-2-en-1-yl)-2-(1-ethyl-3-methyl-1H-pyrazole-5-carboxamido)-7-methoxy-1H-benzo[d]imidazole-5-carboxylic acid]
30 | 1.16 | CCn1nc(C)cc1C(=O)Nc1nc2cc(C(=O)OC)cc(OC)c2n1C/C=C/Cn1c(NC(=O)c2cc(C)nn2CC)nc2cc(C(=O)OC)cc(OCCCNC)c21 [Compound 66b]
31 | 0.0016 | CCn1nc(C)cc1C(=O)Nc1nc2cc(C(N)=O)cc(O)c2n1C/C=C/Cn1c(NC(=O)c2cc(C)nn2CC)nc2cc(C(N)=O)cc(OCCCN3CCOCC3)c21 [Compound 70]
32 | 0.0701 | CCn1nc(C)cc1C(=O)Nc1nc2cc(C(N)=O)cc(OC)c2n1C/C=C/Cn1c(NC(=O)c2cc(C)nn2CC)nc2cc(C(N)=O)cc(OCCCN(C)C(=O)[C@H](CC(=O)O)NC(=O)CCN3C(=O)CC(SC[C@H](N)C(=O)O)C3=O)c21 (stereo partly drawn) [Compound 71]
33 | 0.216 | CCn1nc(C)cc1C(=O)Nc1nc2cc(C(N)=O)cc(OC)c2n1C/C=C/Cn1c(NC(=O)c2cc(C)nn2CC)nc2cc(C(N)=O)cc(OCCCN(C)C(=O)CNC(=O)CCN3C(=O)CC(SC[C@H](N)C(=O)O)C3=O)c21 (stereo partly drawn) [Compound 73]
34 | 0.036 | CCn1nc(C)cc1C(=O)Nc1nc2cc(C(N)=O)cc(OC)c2n1C/C=C/Cn1c(NC(=O)c2cc(C)nn2CC)nc2cc(C(N)=O)cc(OCCCN(C)C(=O)[C@H](C)NC(=O)CCN3C(=O)CC(SC[C@H](N)C(=O)O)C3=O)c21 (stereo partly drawn) [Compound 74]
35 | 0.0577 | CCn1nc(C)cc1C(=O)Nc1nc2cc(C(N)=O)cc(OC)c2n1C/C=C/Cn1c(NC(=O)c2cc(C)nn2CC)nc2cc(C(N)=O)cc(OCCCN(C)C(=O)[C@H](CO)NC(=O)CCN3C(=O)CC(SC[C@H](N)C(=O)O)C3=O)c21 (stereo partly drawn) [Compound 75]
36 | 0.0588 | CCn1nc(C)cc1C(=O)Nc1nc2cc(C(N)=O)cc(OC)c2n1C/C=C/Cn1c(NC(=O)c2cc(C)nn2CC)nc2cc(C(N)=O)cc(OCCCN(C)C(=O)[C@H](COC)NC(=O)CCN3C(=O)CC(SC[C@H](N)C(=O)O)C3=O)c21 (stereo partly drawn) [Compound 76]
